This series relates to CCRIS mutagenicity, Ames/micronucleus/aberration tests. The series is described as follows: CCRIS mutagenicity studies.
Setting [1] is: Test System: AMES SALMONELLA TYPHIMURIUM, Strain/Indicator: TA98, Metabolic Activation: NONE, Method: PREINCUBATION
[2] abbreviates: Test System: AMES SALMONELLA TYPHIMURIUM, Strain/Indicator: TA100, Metabolic Activation: NONE, Method: PREINCUBATION
The mark [3] stands for this setting: Test System: AMES SALMONELLA TYPHIMURIUM, Strain/Indicator: TA100, Metabolic Activation: RAT, LIVER, S-9, PHENOBARBITAL AND 5,6-BENZOFLAVONE, Method: PREINCUBATION
Where [4] appears, read: Test System: AMES SALMONELLA TYPHIMURIUM, Strain/Indicator: TA1535, Metabolic Activation: NONE, Method: PREINCUBATION
Setting [5] is: Test System: AMES SALMONELLA TYPHIMURIUM, Strain/Indicator: TA98, Metabolic Activation: NONE, Method: STANDARD PLATE.
The mark [6] stands for this setting: Test System: AMES SALMONELLA TYPHIMURIUM, Strain/Indicator: TA98, Metabolic Activation: RAT, LIVER, S-9, AROCLOR 1254, Method: STANDARD PLATE.

The structures appear in SMILES notation. The source made the active and inactive calls. How the calls were made is not given here.

Consider `O=C(O)/C=C/C=C/C(=O)O`, for which the mutagenic call (End Point: IN VITRO CHROMOSOMAL ABERRATIONS, Test System: HUMAN PERIPHERAL LYMPHOCYTES, Metabolic Activation: NONE) is “active; positive (ploidy changes)”; the mutagenic call (End Point: IN VITRO CHROMOSOMAL ABERRATIONS, Test System: HUMAN PERIPHERAL LYMPHOCYTES, Metabolic Activation: NONE, Method: FISH- DUAL COLOR PROBES) is “inactive; negative for translocations”; the mutagenic call (Test System: AMES SALMONELLA TYPHIMURIUM, Strain/Indicator: TA97, Metabolic Activation: NONE, Method: PREINCUBATION) was “inactive; negative”; the mutagenic call (Test System: AMES SALMONELLA TYPHIMURIUM, Strain/Indicator: TA97, Metabolic Activation: RAT, LIVER, S-9, AROCLOR 1254, Method: PREINCUBATION) is “inactive; negative”; the mutagenic call (Test System: AMES SALMONELLA TYPHIMURIUM, Strain/Indicator: TA97, Metabolic Activation: RAT, LIVER, S-9, PHENOBARBITAL AND 5,6-BENZOFLAVONE, Method: PREINCUBATION) is “inactive; negative”; the mutagenic call under setting [1] is “inactive; negative”. The mutagenic call runs as follows: (Test System: AMES SALMONELLA TYPHIMURIUM, Strain/Indicator: TA98, Metabolic Activation: RAT, LIVER, S-9, AROCLOR 1254, Method: PREINCUBATION) “inactive; negative”; (Test System: AMES SALMONELLA TYPHIMURIUM, Strain/Indicator: TA98, Metabolic Activation: RAT, LIVER, S-9, PHENOBARBITAL AND 5,6-BENZOFLAVONE, Method: PREINCUBATION) “inactive; negative”; under setting [2], “inactive; negative”; (Test System: AMES SALMONELLA TYPHIMURIUM, Strain/Indicator: TA100, Metabolic Activation: RAT, LIVER, S-9, AROCLOR 1254, Method: PREINCUBATION) “inactive; negative”; under setting [3], “inactive; negative”; (Test System: AMES SALMONELLA TYPHIMURIUM, Strain/Indicator: TA102, Metabolic Activation: NONE, Method: PREINCUBATION) “inactive; negative”. Besides, the mutagenic call by setting is: (Test System: AMES SALMONELLA TYPHIMURIUM, Strain/Indicator: TA102, Metabolic Activation: RAT, LIVER, S-9, AROCLOR 1254, Method: PREINCUBATION) “inactive; negative”; (Test System: AMES SALMONELLA TYPHIMURIUM, Strain/Indicator: TA102, Metabolic Activation: RAT, LIVER, S-9, PHENOBARBITAL AND 5,6-BENZOFLAVONE, Method: PREINCUBATION) “inactive; negative”; (Test System: AMES SALMONELLA TYPHIMURIUM, Strain/Indicator: TA104, Metabolic Activation: NONE, Method: PREINCUBATION) “inactive; negative”; (Test System: AMES SALMONELLA TYPHIMURIUM, Strain/Indicator: TA104, Metabolic Activation: RAT, LIVER, S-9, AROCLOR 1254, Method: PREINCUBATION) “inactive; negative”; (Test System: AMES SALMONELLA TYPHIMURIUM, Strain/Indicator: TA104, Metabolic Activation: RAT, LIVER, S-9, PHENOBARBITAL AND 5,6-BENZOFLAVONE, Method: PREINCUBATION) “inactive; negative”; under setting [4], “inactive; negative”. In addition, the mutagenic call by setting is: (Test System: AMES SALMONELLA TYPHIMURIUM, Strain/Indicator: TA1535, Metabolic Activation: RAT, LIVER, S-9, AROCLOR 1254, Method: PREINCUBATION) “inactive; negative”; (Test System: CHINESE HAMSTER V-79, Strain/Indicator: V-79 (HGPRT)/8-AZAGUANINE, Metabolic Activation: NONE) “inactive; negative”; (Test System: CHINESE HAMSTER V-79, Strain/Indicator: V-79/6-THIOGUANINE, Metabolic Activation: NONE) “inactive; negative”; (Test System: E. COLI, Strain/Indicator: WP2 UVRA, Metabolic Activation: NONE, Method: PREINCUBATION) “inactive; negative”; (Test System: E. COLI, Strain/Indicator: WP2 UVRA, Metabolic Activation: RAT, LIVER, S-9, AROCLOR 1254, Method: PREINCUBATION) “inactive; negative”.

Consider `N[C@@H](CSC(F)(F)C(F)F)C(=O)O`, for which the mutagenic call by setting is: (Test System: AMES SALMONELLA TYPHIMURIUM, Strain/Indicator: TA100, Metabolic Activation: RAT, KIDNEY, S-9, AROCLOR 1254, Method: STANDARD PLATE) “inactive; negative”; (Test System: AMES SALMONELLA TYPHIMURIUM, Strain/Indicator: TA2638, Metabolic Activation: NONE, Method: PREINCUBATION) “inactive; negative”.

Turning to `C=CC(=O)OCCN(C)C`, the mutagenic call by setting is: (Test System: AMES SALMONELLA TYPHIMURIUM, Strain/Indicator: TA98, Metabolic Activation: HAMSTER, LIVER, S-9, AROCLOR 1254 (10%), Method: PREINCUBATION) “inactive; negative”; under setting [1], “inactive; negative”; (Test System: AMES SALMONELLA TYPHIMURIUM, Strain/Indicator: TA98, Metabolic Activation: RAT, LIVER, S-9, AROCLOR 1254 (10%), Method: PREINCUBATION) “inactive; negative”; (Test System: AMES SALMONELLA TYPHIMURIUM, Strain/Indicator: TA100, Metabolic Activation: HAMSTER, LIVER, S-9, AROCLOR 1254 (10%), Method: PREINCUBATION) “inactive; negative”; under setting [2], “inactive; negative”; (Test System: AMES SALMONELLA TYPHIMURIUM, Strain/Indicator: TA100, Metabolic Activation: RAT, LIVER, S-9, AROCLOR 1254 (10%), Method: PREINCUBATION) “inactive; negative”. For the same compound, the mutagenic call is, setting by setting: (Test System: AMES SALMONELLA TYPHIMURIUM, Strain/Indicator: TA1535, Metabolic Activation: HAMSTER, LIVER, S-9, AROCLOR 1254 (10%), Method: PREINCUBATION) “inactive; negative”; under setting [4], “inactive; negative”; (Test System: AMES SALMONELLA TYPHIMURIUM, Strain/Indicator: TA1535, Metabolic Activation: RAT, LIVER, S-9, AROCLOR 1254 (10%), Method: PREINCUBATION) “inactive; negative”; (Test System: AMES SALMONELLA TYPHIMURIUM, Strain/Indicator: TA1537, Metabolic Activation: HAMSTER, LIVER, S-9, AROCLOR 1254 (10%), Method: PREINCUBATION) “inactive; negative”; (Test System: AMES SALMONELLA TYPHIMURIUM, Strain/Indicator: TA1537, Metabolic Activation: NONE, Method: PREINCUBATION) “inactive; negative”; (Test System: AMES SALMONELLA TYPHIMURIUM, Strain/Indicator: TA1537, Metabolic Activation: RAT, LIVER, S-9, AROCLOR 1254 (10%), Method: PREINCUBATION) “inactive; negative”.

Regarding `Fc1cccc2c1ccc1ncccc12`, the mutagenic call under setting [3] was “active; positive”.

`CNP1(NC)=NP(NC)(NC)=NP(NC)(NC)=N1`: the mutagenic call is “inactive; negative” under setting [5]; “inactive; negative” under setting [6]; “inactive; negative” (Test System: AMES SALMONELLA TYPHIMURIUM, Strain/Indicator: TA100, Metabolic Activation: NONE, Method: STANDARD PLATE); “inactive; negative” (Test System: AMES SALMONELLA TYPHIMURIUM, Strain/Indicator: TA100, Metabolic Activation: RAT, LIVER, S-9, AROCLOR 1254, Method: STANDARD PLATE).

For the compound `O=[N+]([O-])c1cc2c(cc3ccc4cccc5ccc2c3c45)o1`, the mutagenic call runs as follows: (Test System: AMES SALMONELLA TYPHIMURIUM, Strain/Indicator: TA98(NR), Metabolic Activation: NONE, Method: STANDARD PLATE) “active; positive”; (Test System: AMES SALMONELLA TYPHIMURIUM, Strain/Indicator: TA98(NR), Metabolic Activation: RAT, LIVER, S-9, AROCLOR 1254, Method: STANDARD PLATE) “active; positive”; under setting [5], “active; positive”; under setting [6], “active; positive”.
